The text below walks through data of patent USRE47302E1 (ONYX THERAPEUTICS INC., priority 2013, dated 2019).

Values after ≈ are worked out from the molar mass of the structure shown.

The target of data set [1] is human constitutive 20S proteasome (c20S) (Homo sapiens, UniProt P28074). In words: 20S proteasome assay, chymotrypsin-like activity (succinyl-Leu-Leu-Val-Tyr-AMC), c20S. Format: biochemical. The settings on record: LLVY substrate, 1 h continuous. An excerpt: (§1) Assay buffer consisted of TE buffer [20 mmol/L Tris (pH 8.0), 0.5 mmol/L EDTA] with (20S) or without (cell lysate) 0.03% SDS. Reactions were initiated by enzyme or lysate addition and monitored for AMC product formation at 27jC with a plate-based spectofluorometer (Tecan).

Data set [2] has as its target human 20S immunoproteasome (i20S) (Homo sapiens, UniProt P28062). In words: 20S proteasome assay, chymotrypsin-like activity (succinyl-Leu-Leu-Val-Tyr-AMC), i20S. The format is biochemical. The settings on record: LLVY substrate, 1 h continuous.
Excerpt: as §1

The next data set can be described thus: Solubility pH 7. The settings on record: pH 7, aqueous buffer.
In data set [3] the target is T1, proteasome subunit β5 (beta5) (Homo sapiens, UniProt P28074).
T1 construct: Lysate from the human acute lymphoblastic leukemia cell line, MOLT-4; endogenous in cells; host or cells: MOLT-4
Nature of the data set: Proteasome active-site ELISA (ProCISE), beta5, MOLT-4 lysate. Format: biochemical. The settings on record: MOLT4 lysate, human, 1 h continuous treatment, 25° C. The method, boiled down: (§2)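 MOLT-4 cell lysate treated 1 h at 25 °C with compound; probe-bound subunits denatured, pulled down on streptavidin beads and detected with subunit-specific antibodies plus HRP chemiluminescence.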
In general terms: An ELISA detects its analyte on a solid surface through an enzyme-linked reagent.

The target of data set [4] is T2, immunoproteasome subunit LMP7 (Homo sapiens, UniProt P28062).
T2 construct: Lysate from the human acute lymphoblastic leukemia cell line, MOLT-4; endogenous in cells; host or cells: MOLT-4
In words: Proteasome active-site ELISA (ProCISE), LMP7, MOLT-4 lysate. Format: biochemical. The settings on record: MOLT4 lysate, 1 h continuous treatment, 25° C. The method, boiled down: as §2

On to `COc1ccc(C[C@H](NC(=O)[C@H](C)NC(=O)CN2CCOCC2)C(=O)N[C@@H](CC2CCCC2)C(=O)[C@@]2(C)CO2)cc1` [Compound C-1005, (S)-N-((S)-3-cyclopentyl-1-((R)-2-methyloxiran-2-yl)-1-oxopropan-2-yl)-3-(4-methoxyphenyl)-2-((S)-2-(2-morpholinoacetamido)propanamido)propanamide], for which the IC50 in data set [1] is 519 nM; in data set [2], 70.4 nM; in data set [3], 1940 nM; in data set [4], 185 nM. Further, the solubility in “Solubility pH 7” is 1760 µg/mL (≈ 3080 µM).
On to `C[C@H](NC(=O)CN1CCOCC1)C(=O)N[C@@H](Cc1ccc2occc2c1)C(=O)N[C@@H](CC1CCCC1)C(=O)[C@@]1(C)CO1` [Compound C-1007, (S)-3-(benzofuran-5-yl)-N-((S)-3-cyclopentyl-1-((R)-2-methyloxiran-2-yl)-1-oxopropan-2-yl)-2-((S)-2-(2-morpholinoacetamido)propanamido)propanamide], for which the IC50 is 440 nM in data set [1], 106 nM in data set [2], 2360 nM in data set [3] and 314 nM in data set [4]. The solubility in the data set “Solubility pH 7” was found to be 878 µg/mL (≈ 1510 µM).
For `COc1ccc(C[C@H](NC(=O)[C@H](C)NC(=O)CN2CCOCC2)C(=O)N[C@@H](CC2=CCCC2)C(=O)[C@@]2(C)CO2)cc1` [Compound C-1009, (S)-N-((S)-3-(Cyclopent-1-en-1-yl)-1-((R)-2-methyloxiran-2-yl)-1-oxopropan-2-yl)-3-(4-methoxyphenyl)-2-((S)-2-(2-morpholinoacetamido)propanamido)propanamide], the IC50 was determined as 351 nM in data set [1], 46.2 nM in data set [2], 926 nM in data set [3] and 83.1 nM in data set [4]. Moreover, the concentration in solution in the data set “Solubility pH 7” (solubility) came to 2730 µg/mL (≈ 4790 µM).
Turning to `COc1ccc(C[C@H](NC(=O)[C@H](C)NC(=O)CC2CCOCC2)C(=O)N[C@@H](CC2CCCC2)C(=O)[C@@]2(C)CO2)cc1` [Compound C-1010, (S)-N-((S)-3-cyclopentyl-1-((R)-2-methyloxiran-2-yl)-1-oxopropan-2-yl)-3-(4-methoxyphenyl)-2-((S)-2-(2-(tetrahydro-2H-pyran-4-yl)acetamido)propanamido)propanamide], the IC50 in data set [1] was found to be 119 nM; in data set [2] it was 24.4 nM; in data set [3] it was 695 nM; in data set [4], 99.6 nM. This compound also yielded a solubility in the data set “Solubility pH 7” of 185 µg/mL (≈ 324 µM).
In the same order, the values of `COc1ccc(C[C@H](NC(=O)[C@@H](C)NC(=O)CC2CCOCC2)C(=O)N[C@@H](CC2CCCC2)C(=O)[C@@]2(C)CO2)cc1` [Compound C-1011, (S)-N-((S)-3-cyclopentyl-1-((R)-2-methyloxiran-2-yl)-1-oxopropan-2-yl)-3-(4-methoxyphenyl)-2-((R)-2-(2-(tetrahydro-2H-pyran-4-yl)acetamido)propanamido)propanamide] are 1550 nM, 98.8 nM, 6970 nM, 556 nM and 1120 µg/mL (≈ 1950 µM).
For `C[C@H](NC(=O)CN1CCOCC1)C(=O)N[C@@H](Cc1ccc2c(c1)OCO2)C(=O)N[C@@H](CC1CCCC1)C(=O)[C@@]1(C)CO1` [Compound C-1012, (S)-3-(benzo[d][1,3]dioxol-5-yl)-N-((S)-3-cyclopentyl-1-((R)-2-methyloxiran-2-yl)-1-oxopropan-2-yl)-2-((S)-2-(2-morpholinoacetamido)propanamido)propanamide], the half-maximal inhibitory concentration (IC50) in data set [1] stood at 470 nM; in data set [2] it was 92.5 nM; in data set [3], 1280 nM; in data set [4], 167 nM. The concentration in solution in the data set “Solubility pH 7” (solubility) was 1720 µg/mL (≈ 2940 µM).
As to `COc1ccc(C[C@H](NC(=O)[C@@H](C)NC(=O)[C@H]2CCOC2)C(=O)N[C@@H](CC2CCCC2)C(=O)[C@@]2(C)CO2)cc1` [Compound C-1037, (S)-N-((R)-1-(((S)-1-(((S)-3-cyclopentyl-1-((R)-2-methyloxiran-2-yl)-1-oxopropan-2-yl)amino)-3-(4-methoxyphenyl)-1-oxopropan-2-yl)amino)-1-oxopropan-2-yl)tetrahydrofuran-3-carboxamide], the IC50 in data set [1] worked out at 5860 nM; in data set [2], 356 nM. In “Solubility pH 7”, this compound gave a solubility of 1330 µg/mL (≈ 2440 µM).
For the compound `C[C@H](NC(=O)CN1CCOCC1)C(=O)N[C@@H](Cc1ccc(O)c(O)c1)C(=O)N[C@@H](CC1CCCC1)C(=O)[C@@]1(C)CO1` [Compound C-1039, (S)-N-((S)-3-cyclopentyl-1-((R)-2-methyloxiran-2-yl)-1-oxopropan-2-yl)-3-(3,4-dihydroxyphenyl)-2-((S)-2-(2-morpholinoacetamido)propanamido)propanamide], the IC50 in data set [1] stood at 694 nM; in data set [2] it was 202 nM. The same compound showed a solubility in “Solubility pH 7” of 7010 µg/mL (≈ 12200 µM).
Turning to `COc1ccc(C[C@H](NC(=O)[C@H](C)NC(=O)CN2CCCC(F)(F)C2)C(=O)N[C@@H](CC2CCCC2)C(=O)[C@@]2(C)CO2)cc1` [Compound C-1043, (S)-N-((S)-3-cyclopentyl-1-((R)-2-methyloxiran-2-yl)-1-oxopropan-2-yl)-2-((S)-2-(2-(3,3-difluoropiperidin-1-yl)acetamido)propanamido)-3-(4-methoxyphenyl)propanamide], the IC50 in data set [1] stood at 404 nM; in data set [2], 251 nM. In “Solubility pH 7”, this compound registered a solubility of 79.2 µg/mL (≈ 131 µM).
`COc1ccc(C[C@H](NC(=O)[C@H](C)NC(=O)CN2CCOCC2)C(=O)N[C@@H](CC2=C(C)CCC2)C(=O)[C@@]2(C)CO2)cc1` [Compound C-1044, (S)-3-(4-methoxyphenyl)-N-((S)-3-(2-methylcyclopent-1-en-1-yl)-1-((R)-2-methyloxiran-2-yl)-1-oxopropan-2-yl)-2-((S)-2-(2-morpholinoacetamido)propanamido)propanamide]: the results for the IC50 in data set [1] and in data set [2] were 9090 nM and 2580 nM, respectively. This compound registered a solubility in “Solubility pH 7” of 1900 µg/mL (≈ 3250 µM).
Turning to `COc1ccc(C[C@H](NC(=O)[C@H](C)NC(=O)CN2CCC(Cl)CC2)C(=O)N[C@@H](CC2CCCC2)C(=O)[C@@]2(C)CO2)cc1` [Compound C-1045, (S)-2-((S)-2-(2-(4-chloropiperidin-1-yl)acetamido)propanamido)-N-((S)-3-cyclopentyl-1-((R)-2-methyloxiran-2-yl)-1-oxopropan-2-yl)-3-(4-methoxyphenyl)propanamide], the IC50 came to 470 nM in data set [1] and 308 nM in data set [2]. Moreover, the concentration in solution in “Solubility pH 7” (solubility) came to 50.2 µg/mL (≈ 83 µM).
As to `COc1ccc(C[C@H](NC(=O)[C@H](C)NC(=O)CN2CCC(C(F)(F)F)CC2)C(=O)N[C@@H](CC2CCCC2)C(=O)[C@@]2(C)CO2)cc1` [Compound C-1047, (S)-N-((S)-3-cyclopentyl-1-((R)-2-methyloxiran-2-yl)-1-oxopropan-2-yl)-3-(4-methoxyphenyl)-2-((S)-2-(2-(4-(trifluoromethyl)piperidin-1-yl)acetamido)propanamido)propanamide], the IC50 in data set [1] was 707 nM; in data set [2], 438 nM. The compound also came in with a solubility in the data set “Solubility pH 7” of 24.1 µg/mL (≈ 37.7 µM).
Taken in the same sequence, the figures for `COc1ccc(C[C@H](NC(=O)[C@H](C)NC(=O)CN2CCC(F)(F)C2)C(=O)N[C@@H](CC2CCCC2)C(=O)[C@@]2(C)CO2)cc1` [Compound C-1048, (S)-N-((S)-3-cyclopentyl-1-((R)-2-methyloxiran-2-yl)-1-oxopropan-2-yl)-2-((S)-2-(2-(3,3-difluoropyrrolidin-1-yl)acetamido)propanamido)-3-(4-methoxyphenyl)propanamide] were 2630 nM, 549 nM and 153 µg/mL (≈ 258 µM).
Take `COc1ccc(C[C@H](NC(=O)[C@@H](C)NC(=O)[C@@H]2CCC(=O)NC2)C(=O)N[C@@H](CC2CCCC2)C(=O)[C@@]2(C)CO2)cc1` [Compound C-1058, (R)-N-((R)-1-(((S)-1-(((S)-3-cyclopentyl-1-((R)-2-methyloxiran-2-yl)-1-oxopropan-2-yl)amino)-3-(4-methoxyphenyl)-1-oxopropan-2-yl)amino)-1-oxopropan-2-yl)-6-oxopiperidine-3-carboxamide]: the values for the IC50 in data set [1] and in data set [2] were 54800 nM and 1610 nM, respectively. For the same compound, in the data set “Solubility pH 7”, the concentration in solution (solubility) came to 3010 µg/mL (≈ 5270 µM).
For the compound `COc1ccc(C[C@H](NC(=O)[C@@H](C)NC(=O)[C@H]2CCC(=O)NC2)C(=O)N[C@@H](CC2CCCC2)C(=O)[C@@]2(C)CO2)cc1` [Compound C-1059, (S)-N-((R)-1-(((S)-1-(((S)-3-cyclopentyl-1-((R)-2-methyloxiran-2-yl)-1-oxopropan-2-yl)amino)-3-(4-methoxyphenyl)-1-oxopropan-2-yl)amino)-1-oxopropan-2-yl)-6-oxopiperidine-3-carboxamide], the half-maximal inhibitory concentration (IC50) in data set [1] was 38400 nM; in data set [2] it was 1650 nM. This compound also came in with a solubility in “Solubility pH 7” of 6010 µg/mL (≈ 10500 µM).
Take `C[C@H](NC(=O)CN1CCOCC1)C(=O)N[C@@H](Cc1ccc(F)cn1)C(=O)N[C@@H](Cc1ccccc1)C(=O)[C@@]1(C)CO1` [Compound C-1154, (S)-3-(5-fluoropyridin-2-yl)-N-((S)-1-((R)-2-methyloxiran-2-yl)-1-oxo-3-phenylpropan-2-yl)-2-((S)-2-(2-morpholinoacetamido)propanamido)propanamide]: the IC50 was found to be 301 nM in data set [1] and 113 nM in data set [2]. Besides, the concentration in solution in the data set “Solubility pH 7” (solubility) was 1910 µg/mL (≈ 3350 µM).

In general, IC50 refers to the concentration needed to halve the response being measured. Low readings indicate greater potency, high ones weaker potency. For orientation: solubility means the concentration that dissolves in the medium under given conditions. Read a low solubility as a poorly soluble substance.
